Experiments:
[1] = system: HUVEC; experiment: Nitric oxide assay in HUVEC; assay type: cell-based, human; conditions: 150 μg/ml TP508 vs 20 μM A23187, 1 h, n=4 (p>0.05)
[2] = system: HUVEC; experiment: Inhibition of HUVEC adhesion to immobilised fibrinogen by soluble peptide; assay type: cell-based, human; conditions: wells coated with 1 μg/ml fibrinogen; 30 min, n=3
[3] = biological target: T1, integrin αvβ3 (Homo sapiens, UniProt P05106+P06756); experiment: Adhesion of HEK-αvβ3 cells to immobilised TP508 peptides; assay type: cell-based; conditions: calcein AM-labelled cells, 30 min, 37°C, fluorescence (Ex485/Em530), n=3
[4] = system: HUVEC; experiment: Adhesion of HUVEC to immobilised TP508 peptides; assay type: cell-based, human; conditions: calcein AM-labelled cells, 30 min, 37°C, fluorescence, n=3
[5] = biological target: αvβ3; conditions: read-out: affinity of αvβ3 to ligand; ref [30]–[31]; cited from earlier work
[6] = biological target: T1, integrin αvβ3; experiment: Inhibition of HEK-αvβ3 adhesion to immobilised fibrinogen by soluble peptide; assay type: cell-based; conditions: wells coated with 1 μg/ml fibrinogen; 30 min, n=3
[7] = system: endothelial cells; conditions: thrombin immobilised to a surface, ref [15]–[17]; cited from earlier work
[8] = system: rat aortic rings; experiment: Muscle-bath assay, carbachol-induced vasorelaxation of rat aortic rings; design: species or system rat (Sprague Dawley); conditions: no TP508, 500 nM norepinephrine 10 min, cumulative 750 nM carbachol; n=3 aortas
[9] = biological target: T1, integrin αvβ3; experiment: Surface plasmon resonance, binding to integrin αvβ3; conditions: BIAcore 2000, CM5 chip, 1,290 RU RAD-TP508, αvβ3 0.053 to 1.06 μM

T1 sequence (P06756 31-889 limits assumed): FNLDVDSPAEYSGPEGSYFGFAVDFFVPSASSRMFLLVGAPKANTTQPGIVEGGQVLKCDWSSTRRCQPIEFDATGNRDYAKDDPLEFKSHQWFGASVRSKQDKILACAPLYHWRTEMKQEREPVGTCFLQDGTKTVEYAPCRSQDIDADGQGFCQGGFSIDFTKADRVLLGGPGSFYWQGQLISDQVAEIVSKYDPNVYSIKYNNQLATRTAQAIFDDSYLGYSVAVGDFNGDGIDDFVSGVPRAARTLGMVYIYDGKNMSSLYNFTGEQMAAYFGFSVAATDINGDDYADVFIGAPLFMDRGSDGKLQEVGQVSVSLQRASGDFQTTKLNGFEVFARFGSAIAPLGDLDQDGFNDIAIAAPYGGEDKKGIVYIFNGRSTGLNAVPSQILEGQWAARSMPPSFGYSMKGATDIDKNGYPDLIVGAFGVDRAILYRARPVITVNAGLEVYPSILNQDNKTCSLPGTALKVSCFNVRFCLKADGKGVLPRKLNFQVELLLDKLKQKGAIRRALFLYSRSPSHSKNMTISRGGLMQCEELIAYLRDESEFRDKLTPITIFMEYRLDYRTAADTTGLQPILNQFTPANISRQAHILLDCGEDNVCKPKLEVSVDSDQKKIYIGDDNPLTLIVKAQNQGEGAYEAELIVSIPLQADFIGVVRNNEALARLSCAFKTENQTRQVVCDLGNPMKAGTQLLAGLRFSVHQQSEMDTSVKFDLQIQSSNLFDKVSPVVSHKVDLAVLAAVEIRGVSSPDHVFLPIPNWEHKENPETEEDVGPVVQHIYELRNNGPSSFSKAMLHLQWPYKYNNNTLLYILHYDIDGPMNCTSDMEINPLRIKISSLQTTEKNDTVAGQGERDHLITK
T1 sequence (P06756 891-1048 partner limits assumed): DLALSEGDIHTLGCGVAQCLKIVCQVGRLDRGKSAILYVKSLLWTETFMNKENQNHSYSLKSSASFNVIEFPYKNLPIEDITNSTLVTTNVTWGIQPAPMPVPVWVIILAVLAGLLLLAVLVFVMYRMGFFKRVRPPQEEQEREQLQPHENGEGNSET
T1 sequence (P05106 27-788): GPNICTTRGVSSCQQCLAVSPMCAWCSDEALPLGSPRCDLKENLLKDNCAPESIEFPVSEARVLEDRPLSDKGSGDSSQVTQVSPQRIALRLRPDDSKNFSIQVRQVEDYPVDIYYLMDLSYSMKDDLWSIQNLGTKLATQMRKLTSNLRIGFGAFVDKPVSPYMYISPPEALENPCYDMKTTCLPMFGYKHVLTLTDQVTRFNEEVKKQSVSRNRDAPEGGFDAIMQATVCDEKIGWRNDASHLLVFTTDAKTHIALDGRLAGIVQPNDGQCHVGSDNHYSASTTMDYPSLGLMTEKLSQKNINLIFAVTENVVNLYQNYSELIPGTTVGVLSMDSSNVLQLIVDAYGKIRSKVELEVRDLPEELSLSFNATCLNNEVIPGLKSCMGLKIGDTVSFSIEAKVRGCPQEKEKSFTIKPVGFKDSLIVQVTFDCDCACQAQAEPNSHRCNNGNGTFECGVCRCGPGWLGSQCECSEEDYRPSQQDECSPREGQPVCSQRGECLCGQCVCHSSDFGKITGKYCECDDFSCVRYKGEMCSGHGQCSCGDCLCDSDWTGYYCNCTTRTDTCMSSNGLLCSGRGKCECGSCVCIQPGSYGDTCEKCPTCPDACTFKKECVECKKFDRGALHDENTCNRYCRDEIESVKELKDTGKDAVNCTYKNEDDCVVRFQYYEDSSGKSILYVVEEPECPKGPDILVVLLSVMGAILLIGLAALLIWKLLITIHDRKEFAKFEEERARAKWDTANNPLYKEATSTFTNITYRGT

Compound: CNc1ccc2oc(C[C@H]3O[C@@]4(CC[C@H]3C)O[C@H]([C@H](C)C(=O)c3ccc[nH]3)[C@H](C)C[C@H]4C)nc2c1C(=O)O [A23187]
- NO induction by TP508 compared with A23187 [1]: a potent inducer of NO

Compound: KAPSEVDKAGDRDGYGFCGGPGE [scrTP508]
- effect of soluble peptide on HUVEC adhesion to immobilised fibrinogen [2]: did not affect HUVEC adhesion to immobilised fibrinogen
- adhesion of HEK-αvβ3 cells to immobilised peptide [3]: did not support HEK-αvβ3 adhesion
- adhesion of HUVEC to immobilised peptide [4]: did not support HUVEC adhesion

Compound: vitronectin: physiological ligand of αvβ3
- Kd [5]: 27 nM

Compound: GRGDSP
- effect of soluble peptide on HEK-αvβ3 adhesion to immobilised fibrinogen [6]: effectively inhibited cell adhesion

Compound: Thrombin
- endothelial cell adhesion to immobilised thrombin [7]: support endothelial cell adhesion in an RGD-dependent manner

Compound: C[N+](C)(C)CCOC(N)=O [carbachol]
- vasorelaxation by carbachol in rings not treated with TP508, 750 nM [8]: 20%

Compound: AGYKPDEGKRADACEGDSGGPFV [RAD-TP508]
- binding of αvβ3 to coupled peptide (SPR) [9]: No binding
- effect of soluble peptide on HUVEC adhesion to immobilised fibrinogen [2]: did not affect HUVEC adhesion to immobilised fibrinogen
- adhesion of HEK-αvβ3 cells to immobilised peptide [3]: did not support HEK-αvβ3 adhesion
- adhesion of HUVEC to immobilised peptide [4]: did not support HUVEC adhesion

Compound: fibrinogen: Human fibrinogen
- Kd [5]: 64 nM
